# From patent US8252781B2, “1,2-diazetidin-3-one derivatives and drugs containing same” (Kowa Company, Ltd., priority 2008, dated 2012)
# Where two headings read alike, the source gives them in different places.
# How the values were obtained:
# human 11β-HSD1 = biological target: T1, human 11β-HSD1 (Homo sapiens, UniProt P28845); test: Enzyme inhibitory activity, human 11β-HSD1 (lysate of stably expressing HEK293 cells, cortisol by competitive ELISA); assay type: biochemical; settings: human 11β-HSD1, cell lysate, 37° C. for 1 hour, read-out: h HSD1 in vitro assay (IC50 uM)
# T1 construct: The obtained PCR products of about 0.9 kbp, 1.2 kbp, and 0.9 kbp were subcloned into an expression vector pcDNA3.1+/Zeo; expressed in transfected cells
# T1 sequence (P28845 whole entry): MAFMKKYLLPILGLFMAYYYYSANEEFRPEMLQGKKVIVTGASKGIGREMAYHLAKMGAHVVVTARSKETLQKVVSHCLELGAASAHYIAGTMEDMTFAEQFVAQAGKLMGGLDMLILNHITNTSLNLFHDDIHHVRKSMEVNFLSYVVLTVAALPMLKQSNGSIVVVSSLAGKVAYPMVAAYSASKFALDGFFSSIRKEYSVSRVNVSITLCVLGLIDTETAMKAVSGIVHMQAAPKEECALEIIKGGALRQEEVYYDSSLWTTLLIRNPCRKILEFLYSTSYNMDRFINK
# How it was run: (§1)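 Sonicated lysates of stably transfected cells (diluted to 0.1–0.4 mg/mL before addition) reacted for 1 h at 37 °C in pH 7.4 Tris/sucrose/EGTA/EDTA/MgCl2 buffer with 100 nmol/L cortisone or cortisol and 400 μmol/L NADPH or NAD+, then were heat-stopped at 95 °C. Inhibition rate = 100 minus residual activity.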
# mouse 11β-HSD1 = biological target: T2, mouse 11β-HSD1 (Mus musculus, UniProt P50172); test: Enzyme inhibitory activity, mouse 11β-HSD1 (lysate of stably expressing CHO-K1 cells, cortisol by competitive ELISA); assay type: biochemical; settings: Table 2; mouse 11β-HSD1, cell lysate, 37° C. for 1 hour; read-out: m HSD1 in vitro assay (IC50 uM)
# T2 construct: The obtained PCR products of about 0.9 kbp, 1.2 kbp, and 0.9 kbp were subcloned into an expression vector pcDNA3.1+/Zeo; expressed in transfected cells
# T2 sequence (P50172 whole entry): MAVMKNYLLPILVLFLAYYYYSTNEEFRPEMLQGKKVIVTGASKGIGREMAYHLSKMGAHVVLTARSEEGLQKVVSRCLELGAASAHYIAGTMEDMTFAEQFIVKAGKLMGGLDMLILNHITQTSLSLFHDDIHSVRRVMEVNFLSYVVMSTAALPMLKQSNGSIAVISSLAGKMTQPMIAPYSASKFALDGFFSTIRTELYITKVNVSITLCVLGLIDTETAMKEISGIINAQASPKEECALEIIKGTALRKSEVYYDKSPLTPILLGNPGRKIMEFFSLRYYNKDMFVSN
# How it was run: as §1
SMILES,IC50 (human 11β-HSD1; Table 2),IC50 (mouse 11β-HSD1),IC50 (human 11β-HSD1; Table 1)
"CC1(C)C(=O)N([C@H]2C3CC4CC2C[C@](O)(C4)C3)N1c1cccc2ccccc12 [Example 236, trans-2-(5-hydroxyadamantan-2-yl)-4,4-dimethyl-1-(naphthalen-1-yl)-1,2-diazetidin-3-one]",,0.31 µM,0.095 µM
"CC1(C)C(=O)N([C@H]2C3CC4CC2C[C@@](O)(C4)C3)N1c1ccc(F)c2ccccc12 [Example 249, cis-1-(4-fluoronaphthalen-1-yl)-2-(5-hydroxyadamantan-2-yl)-4,4-dimethyl-1,2-diazetidin-3-one]",,0.78 µM,0.013 µM
"CC1(C)C(=O)N(C2CC3CCC2C3)N1Cc1cccc(Cl)c1Cl (stereo not drawn) [Example 79, 2-(bicyclo[2.2.1]heptan-2-yl)-1-(2,3-dichlorobenzyl)-4,4-dimethyl-1,2-diazetidin-3-one]",0.22 µM,0.36 µM,
"CC1(C)C(=O)N(C2C3CC4CC(C3)CC2C4)N1C(=O)c1ccc(N)cc1 (stereo not drawn) [Example 139, 1-[(4-aminophenyl)carbonyl]-4,4-dimethyl-2-(adamantan-2-yl)-1,2-diazetidin-3-one]",,0.36 µM,0.79 µM
"CC1(C)C(=O)N(C2C3CC4CC(C3)CC2C4)N1Cc1c(F)cccc1Cl (stereo not drawn) [Example 46, 1-(2-chloro-6-fluorobenzyl)-4,4-dimethyl-2-(adamantan-2-yl)-1,2-diazetidin-3-one]",0.23 µM,0.45 µM,
"Cc1ccccc1C(=O)N1N(C2CCCCCCC2)C(=O)C1(C)C [Example 152, 2-cyclooctyl-4,4-dimethyl-1-[(2-methylphenyl)carbonyl]-1,2-diazetidin-3-one]",,0.54 µM,0.23 µM
"CC1(C)C(=O)N(C2CCCCCC2)N1Cc1ccc(F)cc1Cl [Example 86, 1-(2-chloro-4-fluorobenzyl)-2-cycloheptyl-4,4-dimethyl-1,2-diazetidin-3-one]",0.14 µM,0.49 µM,
"CC1(C)C(=O)N(C2CC3CCC2C3)N1c1cccc(Cl)c1Cl (stereo not drawn) [Example 224, 2-(bicyclo[2.2.1]heptan-2-yl)-1-(2,3-dichlorophenyl)-4,4-dimethyl-1,2-diazetidin-3-one]",,0.34 µM,0.044 µM

# Now those with a lower IC50 (mouse 11β-HSD1), led by results:
IC50 (human 11β-HSD1; Table 2),IC50 (mouse 11β-HSD1),IC50 (human 11β-HSD1; Table 1),SMILES
0.44 µM,0.15 µM,,"CC1(C)C(=O)N(C2C3CC4CC(C3)CC2C4)N1Cc1cccc(I)c1 (stereo not drawn) [Example 35, 1-(3-iodobenzyl)-4,4-dimethyl-2-(adamantan-2-yl)-1,2-diazetidin-3-one]"
0.6 µM,0.041 µM,,"CC1(C)C(=O)N(C2C3CC4CC(C3)CC2C4)N1Cc1ccc2ccccc2c1 (stereo not drawn) [Example 64, 4,4-dimethyl-1-(naphthalen-2-ylmethyl)-2-(adamantan-2-yl)-1,2-diazetidin-3-one]"
0.42 µM,0.12 µM,,"CC1(C)C(=O)N(C2C3CC4CC(C3)CC2C4)N1C(=O)c1cccc(Br)c1 (stereo not drawn) [Example 113, 1-[(3-bromophenyl)carbonyl]-4,4-dimethyl-2-(adamantan-2-yl)-1,2-diazetidin-3-one]"
0.64 µM,0.079 µM,,"CC1(C)C(=O)N(C2C3CC4CC(C3)CC2C4)N1Cc1cccc(F)c1 (stereo not drawn) [Example 22, 1-(3-fluorobenzyl)-4,4-dimethyl-2-(adamantan-2-yl)-1,2-diazetidin-3-one]"
0.26 µM,0.1 µM,,"CC1(C)C(=O)N(C2C3CC4CC(C3)CC2C4)N1Cc1ccccc1F (stereo not drawn) [Example 38, 1-(2-fluorobenzyl)-4,4-dimethyl-2-(adamantan-2-yl)-1,2-diazetidin-3-one]"
0.69 µM,0.21 µM,,"CC1(C)C(=O)N(C2C3CC4CC(C3)CC2C4)N1Cc1ccc(C(F)(F)F)cc1 (stereo not drawn) [Example 36, 4,4-dimethyl-2-(adamantan-2-yl)-1-[4-(trifluoromethyl)benzyl]-1,2-diazetidin-3-one]"
,0.1 µM,0.5 µM,"CC1(C)C(=O)N(C2C3CC4CC(C3)CC2C4)N1C(=O)c1cccc(Cl)c1 (stereo not drawn) [Example 128, 1-[(3-chlorophenyl)carbonyl]-4,4-dimethyl-2-(adamantan-2-yl)-1,2-diazetidin-3-one]"
